Test [1] deals with TEAD4 (Homo sapiens (Human), UniProt Q15561). The test is described as follows: TR-FRET lipid pocket probe competition assay (Lipid HTRF), TEAD4.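 Also: His-tagged TEAD4 with biotinylated lipid-pocket probe, read by Europium anti-His and XL665 streptavidin, where probe displacement lowers the TR-FRET signal, IC50 from a four-parameter fit.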 It counts as binding. The following applies: 4 hours pre-incubation; read-out: Lipid HTRF TEAD4 IC50.
The target of test [2] is TEAD1 (Homo sapiens (Human), UniProt P28347). The test is described as follows: TR-FRET lipid pocket probe competition assay (Lipid HTRF), TEAD1.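 Also: His-tagged TEAD1 with biotinylated probe, detected via Europium anti-His and XL665 streptavidin, probe displacement lowers TR-FRET signal, IC50 from four-parameter nonlinear fit.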 In kind it is binding. The following applies: 4 hours pre-incubation; read-out: Lipid HTRF TEAD1 IC50. Background: In TR-FRET formats the signal depends on donor and acceptor labels being close together.
Test [3] addresses TEAD3 (Homo sapiens (Human), UniProt Q99594). The test is described as follows: TR-FRET lipid pocket probe competition assay (Lipid HTRF), TEAD3. It counts as binding. The following applies: 4 hours pre-incubation; read-out: Lipid HTRF TEAD3 IC50.
Test [4] addresses TEAD2 (Homo sapiens (Human), UniProt Q15562).
Description: His-tagged TEAD proteins are pre-incubated with TEAD project compounds for 30 minutes or 4 hours at room temperature. Biotinylated lipid pocket probes are then added to the TEAD/Compound mixture and incubated for 60 minutes at room temperature. The lipid pocket probe competes with the test compound for the TEAD lipid pocket until equilibrium is reached. After 60 minutes, Europium labelled anti-His (Perkin Elmer #AD0110) and XL665 labelled streptavidin (CIS Bio 610SAXAC) are added to the TEAD/test compound/lipid pocket mixture and incubated for 30 minutes or 4 hours. TR-FRET values are then measured using an EnVision multi-label plate reader (Perkin Elmer Cat #2104-0010A.) If the lipid pocket probe binds to TEAD as expected, a TR-FRET signal results from the proximity of anti-His Eu and XL665. If a TEAD lipid pocket binder such as binds and displaces the lipid pocket probe, the disruption of the TEAD:probe interaction results in a decrease in TR-FRET signal. The potency of compounds as TEAD lipid pocket binders is determined by IC50 value generated using a non-linear 4 parameter curve fit.

pIC50: −log10 of the molar value.

The source of these data is patent US12110276B2 (Genentech, Inc., priority 2021, dated 2024).

TEAD3, sequence (Q99594 whole entry, species assumed): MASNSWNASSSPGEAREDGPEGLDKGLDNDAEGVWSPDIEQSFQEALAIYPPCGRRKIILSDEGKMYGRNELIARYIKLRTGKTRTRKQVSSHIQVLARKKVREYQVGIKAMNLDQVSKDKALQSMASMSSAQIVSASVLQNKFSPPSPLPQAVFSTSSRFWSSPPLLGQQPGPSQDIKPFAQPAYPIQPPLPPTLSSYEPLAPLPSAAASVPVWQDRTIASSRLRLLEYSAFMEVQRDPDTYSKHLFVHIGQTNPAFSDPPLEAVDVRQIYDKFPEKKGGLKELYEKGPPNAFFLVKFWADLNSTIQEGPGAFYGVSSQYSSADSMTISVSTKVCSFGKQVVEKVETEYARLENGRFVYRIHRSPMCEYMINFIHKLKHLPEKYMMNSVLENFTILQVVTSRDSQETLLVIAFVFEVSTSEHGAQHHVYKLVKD
TEAD1, sequence (P28347 whole entry, species assumed): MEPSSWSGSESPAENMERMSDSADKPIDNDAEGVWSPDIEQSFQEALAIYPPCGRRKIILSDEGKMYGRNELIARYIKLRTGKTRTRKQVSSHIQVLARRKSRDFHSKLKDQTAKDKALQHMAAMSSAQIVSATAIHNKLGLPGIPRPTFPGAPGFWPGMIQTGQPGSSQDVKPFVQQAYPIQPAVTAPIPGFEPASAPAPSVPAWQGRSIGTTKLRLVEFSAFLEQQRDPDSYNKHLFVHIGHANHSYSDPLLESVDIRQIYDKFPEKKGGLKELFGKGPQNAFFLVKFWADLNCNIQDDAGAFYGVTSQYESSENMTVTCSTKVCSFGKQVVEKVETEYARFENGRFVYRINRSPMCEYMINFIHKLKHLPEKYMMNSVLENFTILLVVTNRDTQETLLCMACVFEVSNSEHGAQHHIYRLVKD
TEAD4, sequence (Q15561 whole entry, species assumed): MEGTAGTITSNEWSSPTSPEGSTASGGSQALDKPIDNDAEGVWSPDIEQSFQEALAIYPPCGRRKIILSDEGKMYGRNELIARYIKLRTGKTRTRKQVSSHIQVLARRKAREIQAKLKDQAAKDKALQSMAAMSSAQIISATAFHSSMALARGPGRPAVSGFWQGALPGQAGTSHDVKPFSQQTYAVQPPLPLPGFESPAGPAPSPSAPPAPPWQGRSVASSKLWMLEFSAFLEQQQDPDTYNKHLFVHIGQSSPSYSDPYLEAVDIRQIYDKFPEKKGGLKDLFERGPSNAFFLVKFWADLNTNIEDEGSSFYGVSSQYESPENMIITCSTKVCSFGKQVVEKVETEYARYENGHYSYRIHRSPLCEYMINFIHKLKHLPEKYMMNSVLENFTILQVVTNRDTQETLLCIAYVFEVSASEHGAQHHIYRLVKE
TEAD2, sequence (Q15562 whole entry, species assumed): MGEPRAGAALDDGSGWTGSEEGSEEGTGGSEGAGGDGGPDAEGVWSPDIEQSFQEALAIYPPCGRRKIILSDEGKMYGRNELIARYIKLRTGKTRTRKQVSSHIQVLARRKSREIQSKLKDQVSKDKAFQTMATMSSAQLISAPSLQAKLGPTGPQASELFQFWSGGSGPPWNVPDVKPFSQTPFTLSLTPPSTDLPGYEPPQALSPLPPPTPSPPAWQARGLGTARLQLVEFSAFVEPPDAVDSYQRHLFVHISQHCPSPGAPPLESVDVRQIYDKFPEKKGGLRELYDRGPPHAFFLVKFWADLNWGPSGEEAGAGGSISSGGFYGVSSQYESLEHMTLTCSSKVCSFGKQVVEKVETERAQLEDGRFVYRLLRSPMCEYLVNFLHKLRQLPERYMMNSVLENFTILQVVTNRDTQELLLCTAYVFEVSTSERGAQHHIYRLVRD

Regarding `C=CC(=O)NCc1nn(-c2ccc(OC(F)(F)F)cc2)c2nccc(N[C@H]3C[C@H](O)C3)c12` [Compound 85, N-((4-((3-hydroxycyclobutyl)amino)-1-(4-(trifluoromethoxy)phenyl)-1H-pyrazolo[3,4-b]pyridin-3-yl)methyl)acrylamide], the pIC50 was 6.77 in test [1], 6.85 in test [2], 4.82 in test [3] and 6.32 in test [4].
As for `C=CC(=O)NCc1nn(-c2ccc(S(F)(F)(F)(F)F)cc2)c2nccc(CO)c12` [Compound 87, N-((4-(Hydroxymethyl)-1-(4-(pentafluoro-λ^6-sulfanyl)phenyl)-1H-pyrazolo[3,4-b]pyridin-3-yl)methyl)acrylamide], the negative logarithm of the IC50 (pIC50) in test [1] is 7.48; in test [2], 7.64; in test [3] it was 6.28; in test [4], 6.72.
As to `C=CC(=O)NCc1nn(-c2ccc(OC(F)(F)F)cc2)c2nccc(N3CCC(O)CC3)c12` [Compound 91, N-((4-(4-hydroxypiperidin-1-yl)-1-(4-(trifluoromethoxy)phenyl)-1H-pyrazolo[3,4-b]pyridin-3-yl)methyl)acrylamide], the pIC50 was 7.55 in test [1], 7.36 in test [2], 4.39 in test [3] and 7.18 in test [4].
Regarding `C=CC(=O)NCc1nn(-c2ccc(OC(F)(F)F)cc2)c2nccc(N3CC(N)C3)c12` [Compound 92, N-((4-(3-aminoazetidin-1-yl)-1-(4-(trifluoromethoxy)phenyl)-1H-pyrazolo[3,4-b]pyridin-3-yl)methyl)acrylamide], the negative-log IC50 (pIC50) in test [1] was 7.28; in test [2] it was 6.96; in test [3] it was 4.89; in test [4], 6.11.
For the compound `C=CC(=O)N(C)Cc1nn(-c2ccc(OC(F)(F)F)cc2)c2nccc([C@@H](O)CO)c12` [Compound 93, (R)-N-((4-(1,2-dihydroxyethyl)-1-(4-(trifluoromethoxy)phenyl)-1H-pyrazolo[3,4-b]pyridin-3-yl)methyl)-N-methylacrylamide], the negative-log IC50 (pIC50) was 7.66 in test [1], 6.77 in test [2], 6.24 in test [3] and 6.15 in test [4].
`Cc1ccnc2c1c(C1CN(C(=O)/C=C/CO)C1)nn2-c1ccc(OC(F)(F)F)cc1` [Compound 96, (E)-4-Hydroxy-1-(3-(4-methyl-1-(4-(trifluoromethoxy)phenyl)-1H-pyrazolo[3,4-b]pyridin-3-yl)azetidin-1-yl)but-2-en-1-one]: the negative logarithm of the IC50 (pIC50) in test [1] was 8.43; in test [2], 8.00; in test [3], 7.42; in test [4] it was 7.52.
In the case of `C[C@H](O)/C=C/C(=O)N1CC(c2nn(-c3ccc(OC(F)(F)F)cc3)c3nccc(CO)c23)C1` [Compound 97, (S,E)-4-hydroxy-1-(3-(4-(hydroxymethyl)-1-(4-(trifluoromethoxy)phenyl)-1H-pyrazolo[3,4-b]pyridin-3-yl)azetidin-1-yl)pent-2-en-1-one], the pIC50 in test [1] was 7.24; in test [2], 7.11; in test [3], 6.24; in test [4] it was 6.28.
Take `O=C(/C=C\Cl)NCc1nn(-c2ccc(OC(F)(F)F)cc2)c2nccc(CO)c12` [Compound 99, (Z)-3-Chloro-N-((4-(hydroxymethyl)-1-(4-(trifluoromethoxy)phenyl)-1H-pyrazolo[3,4-b]pyridin-3-yl)methyl)acrylamide]: the negative logarithm of the IC50 (pIC50) is 8.30 in test [1], 8.48 in test [2], 7.06 in test [3] and 7.55 in test [4].
Turning to `O=C(/C=C/Cl)N1CC(c2nn(-c3ccc(OC(F)(F)F)cc3)c3nccc(CO)c23)C1` [Compound 102, (E)-3-Chloro-1-(3-(4-(hydroxymethyl)-1-(4-(trifluoromethoxy)phenyl)-1H-pyrazolo[3,4-b]pyridin-3-yl)azetidin-1-yl)prop-2-en-1-one], the negative logarithm of the IC50 (pIC50) in test [1] is 8.48; in test [2], 8.00; in test [3] it was 8.06; in test [4], 8.46.
With `O=C(/C=C/CO)N1CC(c2nn(-c3ccc(OC(F)(F)F)cc3)c3ccnc(N4CC(O)C4)c23)C1` [Compound 103, (E)-4-hydroxy-1-(3-(4-(3-hydroxyazetidin-1-yl)-1-(4-(trifluoromethoxy)phenyl)-1H-pyrazolo[4,3-c]pyridin-3-yl)azetidin-1-yl)but-2-en-1-one], the pIC50 in test [1] is 7.08; in test [2] it was 6.74; in test [3], 4.30; in test [4], 5.47.
Take `C=CC(=O)NCc1nn(-c2ccc(OC(F)(F)F)cc2)c2nccc(CN(C)C)c12` [Compound 105, N-((4-((dimethylamino)methyl)-1-(4-(trifluoromethoxy)phenyl)-1H-pyrazolo[3,4-b]pyridin-3-yl)methyl)acrylamide]: the negative logarithm of the IC50 (pIC50) was 6.35 in test [1], 6.00 in test [2], 4.30 in test [3] and 6.21 in test [4].
On the same counts, the results for `C=CC(=O)NCc1nn(-c2ccc(OC(F)(F)F)cc2)c2nccc(N3CC(O)C3)c12` [Compound 106, N-((4-(3-hydroxyazetidin-1-yl)-1-(4-(trifluoromethoxy)phenyl)-1H-pyrazolo[3,4-b]pyridin-3-yl)methyl)acrylamide] are 8.17, 7.81, 6.03 and 7.21.
On the same counts, the results for `C=CC(=O)NCc1nn(-c2ccc(OC(F)(F)F)cc2)c2nccc(N3CC(N(C)C)C3)c12` [Compound 107, N-((4-(3-(dimethylamino)azetidin-1-yl)-1-(4-(trifluoromethoxy)phenyl)-1H-pyrazolo[3,4-b]pyridin-3-yl)methyl)acrylamide] are 7.44, 6.55, 4.30 and 6.02.
For `C=C(Cl)C(=O)N1CC(c2nn(-c3ccc(OC(F)(F)F)cc3)c3nccc([C@H](O)CO)c23)C1` [Compound 109, (S)-2-Chloro-1-(3-(4-(1,2-dihydroxyethyl)-1-(4-(trifluoromethoxy)phenyl)-1H-pyrazolo[3,4-b]pyridin-3-yl)azetidin-1-yl)prop-2-en-1-one], the pIC50 was 8.29 in test [1], 7.64 in test [2], 7.74 in test [3] and 8.11 in test [4].
With `C=C(Cl)C(=O)N1CC(c2nn(-c3ccc(OC(F)(F)F)cc3)c3nccc([C@@H](O)CO)c23)C1` [Compound 110, (R)-2-chloro-1-(3-(4-(1,2-dihydroxyethyl)-1-(4-(trifluoromethoxy)phenyl)-1H-pyrazolo[3,4-b]pyridin-3-yl)azetidin-1-yl)prop-2-en-1-one], the negative-log IC50 (pIC50) is 8.37 in test [1], 7.72 in test [2], 7.77 in test [3] and 8.10 in test [4].
On the same counts, the results for `C=CC(=O)N1CC(c2nn(-c3ccc(OC(F)(F)F)cc3)c3nccc([C@H](O)CO)c23)C1` [Compound 113, (S)-1-(3-(4-(1,2-Dihydroxyethyl)-1-(4-(trifluoromethoxy)phenyl)-1H-pyrazolo[3,4-b]pyridin-3-yl)azetidin-1-yl)prop-2-en-1-one] are 8.35, 7.72, 7.70 and 8.19.
On to `C=CC(=O)N1CC(c2nn(-c3ccc(OC(F)(F)F)cc3)c3nccc([C@@H](O)CO)c23)C1` [Compound 114, (R)-1-(3-(4-(1,2-Dihydroxyethyl)-1-(4-(trifluoromethoxy)phenyl)-1H-pyrazolo[3,4-b]pyridin-3-yl)azetidin-1-yl)prop-2-en-1-one], for which the pIC50 in test [1] was 8.54; in test [2] it was 7.85; in test [3], 7.80; in test [4] it was 8.34.
On the same counts, the results for `C=CC(=O)NCc1nn(-c2ccc(OC(F)(F)F)cc2)c2nccc(N3CC(NC(C)=O)C3)c12` [Compound 116, N-((4-(3-acetamidoazetidin-1-yl)-1-(4-(trifluoromethoxy)phenyl)-1H-pyrazolo[3,4-b]pyridin-3-yl)methyl)acrylamide] are 7.96, 7.57, 4.85 and 7.12.
On to `C=CC(=O)NCc1nn(-c2ccc(OC(F)(F)F)cc2)c2nccc(N3CC(OC)C3)c12` [Compound 118, N-((4-(3-methoxyazetidin-1-yl)-1-(4-(trifluoromethoxy)phenyl)-1H-pyrazolo[3,4-b]pyridin-3-yl)methyl)acrylamide], for which the negative-log IC50 (pIC50) is 8.37 in test [1], 7.80 in test [2], 4.30 in test [3] and 7.01 in test [4].
Regarding `C=CC(=O)NCc1nn(-c2ccc(OC(F)(F)F)cc2)c2nccc(-c3c[nH]cn3)c12` [Compound 119, N-((4-(1H-Imidazol-4-yl)-1-(4-(trifluoromethoxy)phenyl)-1H-pyrazolo[3,4-b]pyridin-3-yl)methyl)acrylamide], the pIC50 in test [1] is 6.96; in test [2], 6.80; in test [3], 6.26; in test [4], 6.60.
The matching figures for `C/C=C/C(=O)N1CC(c2nn(-c3ccc(OC(F)(F)F)cc3)c3nccc(CO)c23)C1` [Compound 120, (E)-1-(3-(4-(Hydroxymethyl)-1-(4-(trifluoromethoxy)phenyl)-1H-pyrazolo[3,4-b]pyridin-3-yl)azetidin-1-yl)but-2-en-1-one]: 7.26, 7.57, 6.57 and 6.80.
For `C=CC(=O)NCc1nn(-c2ccc(OC(F)(F)F)cc2)c2nccc(N3CC(NC)C3)c12` [Compound 122, N-((4-(3-(methylamino)azetidin-1-yl)-1-(4-(trifluoromethoxy)phenyl)-1H-pyrazolo[3,4-b]pyridin-3-yl)methyl)acrylamide], the pIC50 in test [1] is 7.41; in test [2], 6.72; in test [3], 4.68; in test [4], 5.70.

A word on the pIC50: it is the negative decadic logarithm of the IC50, by convention in mol/L.
